Results as given in patent US8859625B2, “Methods to prepare penta-1,4-dien-3-ones and substituted cyclohexanones and derivatives with antitumoral and antiparasitic properties, the compounds and their uses” (Universidade Bandeirante de Sao Paulo-Academia, Paulista …, priority 2006, dated 2014).
Converted amounts (≈) assume the structure as drawn.

Tests used:
[1] = test system: amastigote-like forms of Leishmania (L) amazonensis; test: Viability of amastigote-like forms from axenic culture by MTT; format: cell-based; conditions: for O.D. (optical density): amastigote-like forms
Method: Compounds are solubilized with dimethyl sulfoxide (DMSO) to produce a stock solution from which samples with different concentrations are obtained, by adding the culture medium in sufficient volume as required to attain the first desired concentration with the other concentrations being obtained by serial dilution of this first one, at ratio 2. The cultures are incubated at 22° C. or 34° C. for promastigotes and amastigotes, respectively.
Viability and/or cellular proliferative assays of promastigote and amastigote forms are also performed by the MTT (diphenyl tetrazolium 3-[4,5-dimethylthiazol-2il]2,5-bromide) method as described by Moreira, et al. (Moreira, M. E. C., Del Portillo, H. A., Milder, R. V., Balanco, J. M. F. and Barcinski, M. A. Heat shock induction of apoptosis in promastigotes of the unicellular organism Leishmania (Leishmania) amazonensis, J. Cell Physiol 167, 305-313, 1996), modified.
After incubation of parasitic forms with the compounds, as described above, for predetermined periods of time for each experiment (24, 48, 72 hours, etc.), an 1.0 mL aliquot of cellular suspension is collected from each culture tube or vial and transferred to microcentrifuge tubes, where they are centrifuged at 14.000 rpm for 3 minutes, the culture medium is aspirated and discharged. To the sedimented cells are add 200 μL of PBS. After that, the volume in PBS of the cellular suspensions is splitted into two wells (duplicates of 100 μL each) of a 96 well culture plate. To each duplicate, […] of MTT (5 mg/mL stock solution, […]) are added. After 1 h or 1 h 30 min, at a temperature of 22° C. (promastigotes) or 34° C. (amastigotes), 100 μL of 10% SDS are added to each well to interrupt the reaction, to lyse the cells and to dissolve the formazan crystals, resulting in an homogeneous blue solution appropriate to the absorbance measure by a spectrophotometer for culture microplates (3550 BIORAD model, Richmond, Calif.), at 595 nm as test wavelength and 690 nm as the reference wavelength.
The optical density (O.D.) values correspond to MTT enzymatic reduction by the metabolic active cells. Consequently, the O.D. is directly proportional to the number of viable cells of the cellular suspension. The progressive increase of O.D. indicates cellular proliferation. Results are expressed as arithmetic average of the optical density duplicates.
Considering that the amastigote forms are those that multiply inside a vertebrate host and, consequently, are responsible for the disease, it is indispensable to evaluate the viability of these forms when incubated with HB-1.
This evaluation is performed as previously described and by applying the amastigote forms obtained from an axenic culture.

B16F10 melanoma = test: Cell cycle phases by flow cytometry of melanoma dorsal tumors treated for 14 days; format: in vivo, C57BL/6J mice; conditions: 15 mg/kg HB-1 diluted in Miglyol 810, intraperitoneal
Method: Determination of Cell Cycle Phases Through Flow Cytometry of Melanoma Dorsal Tumors Treated for 14 Days with the HB-1 Compound by the Intraperitoneal Route.
Aliquots of the tumoral cells suspensions (10^6 cells/mL) for the control group that received Miglyol 810® vehicle and of the animals treated with the HB-1 compound for 14 days by the intraperitoneal route were immediately frozen in citrate (2 mM), sucrose (25 mM), and 0.05% dimethyl sulfoxide (DMSO) buffer, kept in liquid nitrogen up to the moment of use. After sample thawing in an ice bath, the cells were incubated with 375 μL of 0.03 g/L trypsin (Sigma) for 10 minutes, at room temperature, and neutralized with 0.5 g/L trypsin inhibitor (Sigma), 0.1 g/L ribonuclease A (Sigma), and 1.2 g/L spermine (Sigma). The samples were analysed by a flow cytometer (Becton-Dickson) and the percentage of cells was evaluated for the different phases of the cell cycle, apoptosis level (Sub-G1), and DNA content in phase S, quiescent cells (G0/G1), and cells in premytosis (G2/M).

[2] = test system: peritoneal normal macrophages; test: Cytotoxic effect on peritoneal normal macrophages by the MTT method; format: cell-based, Balb-C mice; conditions: Mus musculus, Macrophage, diluted in Miglyol 810, 24 hours
Method: Cytotoxic Effect of HB-1 Compound on Peritoneal Normal Macrophages Assessed by the MTT Method.
Peritoneal macrophages were obtained from normal Balb-C mice through the following procedure: abdominal cavities of the animals were opened under sterile conditions under a laminar flow and exposed. A 2 mL volume of saline solution, containing 5000 U frosty heparin (Liquemine-Roche), was injected into the cavity, followed by a massage and collection of the peritoneal wash irrigation liquid, centrifuged at 2000 rpm for 10 minutes at 4° C.
The suspension was resuspended with RPMI-1640 culture medium supplemented with 10% bovine fetal serum, with the count cell number adjusted to 10^6/mL in a Neubauer chamber. Aliquots of the macrophages were cultivated on plates with 96 flat bottom wells, incubated with and without HB-1 compound diluted in Miglyol 810®. After 24 hours, the plates were submitted to the cytotoxic and antiproliferative effect assessment by the MTT calorimetric method.

## COc1cc(C=CC(=O)C=Cc2ccc(O)c(OC)c2)ccc1O [HB-1, 1,5-Bis-(4-hydroxy-3-methoxy-phenyl)-penta-1,4-dien-3-one]
[1]; 10 μg/mL and 20 μg/mL, first 24 hours
  inhibition of cellular activity of amastigotes: 100%
[1]; HB-1 5 μg/mL, 24 hours
  O.D. (optical density): 0.16
[1]; HB-1 5 μg/mL, 48 hours
  O.D. (optical density): 0.012
[1]; HB-1 5 μg/mL, 72 hours
  O.D. (optical density): 0.012
[1]; HB-1 10 μg/mL, 24 hours
  O.D. (optical density): 0.010
[1]; HB-1 10 μg/mL, 48 hours
  O.D. (optical density): 0.014
[1]; HB-1 10 μg/mL, 72 hours
  O.D. (optical density): 0.014
[1]; HB-1 20 μg/mL, 24 hours
  O.D. (optical density): 0.009
[1]; HB-1 20 μg/mL, 48 hours
  O.D. (optical density): 0.012
[1]; HB-1 20 μg/mL, 72 hours
  O.D. (optical density): 0.016
[1]; all assayed concentrations, first 48 hours
  parasites nonviable: 100%
B16F10 melanoma
  tumoral cell population in the G0/G1 phase of the cell cycle: significantly reduces
[2]
  IC50: 16.9 µg/mL (≈ 51.8 µM)
